Results published in patent US20150366862A1, “Use of flibanserin for the treatment of pre-menopausal sexual desire disorders” (Sprout Pharmaceuticals, Inc., priority 2005, published 2015).

Experiments:
5-HT2-receptor = details: background statement, no value given; cited from earlier work
5-HT-1A receptor = target: T1, 5-HT-1A receptor (Homo sapiens, UniProt P08908); details: background statement, no value given; cited from earlier work
T1 sequence (P08908 1-422): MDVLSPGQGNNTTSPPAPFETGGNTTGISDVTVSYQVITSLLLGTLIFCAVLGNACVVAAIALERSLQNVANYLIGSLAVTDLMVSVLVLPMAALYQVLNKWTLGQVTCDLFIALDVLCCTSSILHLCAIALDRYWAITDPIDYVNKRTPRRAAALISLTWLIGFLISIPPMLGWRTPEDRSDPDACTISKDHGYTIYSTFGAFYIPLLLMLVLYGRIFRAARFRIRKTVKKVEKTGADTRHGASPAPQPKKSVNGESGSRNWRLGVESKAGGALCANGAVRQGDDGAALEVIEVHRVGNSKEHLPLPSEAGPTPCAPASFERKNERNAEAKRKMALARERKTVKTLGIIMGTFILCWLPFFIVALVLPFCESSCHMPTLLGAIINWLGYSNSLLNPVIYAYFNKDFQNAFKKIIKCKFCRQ

[1] = system: pre-menopausal female patients with HSDD; experiment: twelve-week randomized, double-blind, placebo-controlled proof of concept trial in pre-menopausal female patients with HSDD (IVR-FSBQ); type: in vivo, human
Procedure: This trial was designed as a prospective, multi-center, twelve-week, randomized, double-blind, placebo-controlled, proof of concept, parallel-group trial comparing the effects of flibanserin (maximum total daily dose: 100 mg b.i.d.) to placebo in pre-menopausal female patients with HSDD. Seventy-five patients were to be randomized to each treatment group.
This proof of concept trial was designed to assess whether twelve weeks of flibanserin treatment produced a clinically meaningful therapeutic response in healthy female patients with HSDD (as determined by DSM-IV criteria). Efficacy for flibanserin was assessed versus a parallel placebo group.
After a Screening period (no treatment) of approximately twenty-eight days, eligible patients were randomized into the twelve week, double-blind portion of the trial during which they were to take study medication in the morning and in the evening about 12 hours apart.
Patients must have been pre-menopausal females who were 18 to 45 years of age with the primary diagnosis of HSDD, acquired type, according to DSM-IV criteria. The current episode must have been at least 24 weeks in duration by the Baseline Visit.
The baseline severity criterion was from the Arizona Sexual Experiences Scale, requiring a score of 5 or 6 (very weak or no sex drive) on the sex drive item. […]

## O=c1[nH]c2ccccc2n1CCN1CCN(c2cccc(C(F)(F)F)c2)CC1 [flibanserin, 1-[2-(4-(3-trifluoromethyl-phenyl)piperazin-1-yl)ethyl]-2,3-dihydro-1H-benzimidazol-2-one]
5-HT2-receptor
  affinity for the 5-HT2-receptor: shows affinity
5-HT-1A receptor
  affinity for the 5-HT-1A receptor: shows affinity
[1]; pre-menopausal women with HSDD, 50 mg b.i.d. (up to 100 mg b.i.d. from Week 8), 12 weeks, FAS, LOCF, FIG. 1
  IVR-FSBQ Frequency of Sexual Thoughts, monthly mean change from baseline vs placebo: clearly demonstrates the efficacy
[1]; studies of pre-menopausal female patients suffering from sexual dysfunction
  sexual desire enhancing properties: displays sexual desire enhancing properties
